Assay results as given in patent publication US11246873B2, “Directed differentiation of oligodendrocyte precursor cells to a myelinating cell fate” (The Scripps Research Institute, priority 2011, dated 2022).
Entries after “also recorded” stand apart in the source; their conditions may differ. Where two headings read alike, the source gives them in different places.

Columns and labels:
[1] = system: OPCs; assay: Immunofluorescence analysis of mature oligodendrocyte markers (MBP, MOG, CNP, GalC, O1, O4); assay type: cell-based, rat; conditions: OPCs treated 6 days
From the text: FIG. 3. Immunofluorescence analysis of compound treated OPCs using mature oligodendrocyte specific markers. Immunofluorescence staining using specific antibodies for MBP, MOG, and 2′,3′-cyclic nucleotide 3′ phosphodiesterase (CNP). Nuclei were identified using DAPI.
FIG. 4. Immunofluorescence analysis of compound treated OPCs using mature oligodendrocyte specific markers. Immunofluorescence staining using specific antibodies for galactocereberoside (GalC), oligodendrocyte marker O1 (O1) and oligodendrocyte marker O4 (O4). Nuclei were identified using DAPI.
FIG. 14. Compound treatment induces the differentiation of OPCs to mature oligodendrocytes. […] Cells were fixed and immunostained for MBP, MOG, CNP, GalC, O1, or O4.
Immunofluorescence was also used to confirm that the hits were able to induce oligodendrocyte maturation.

[2] = system: muscarinic receptor; assay: Carbachol co-treatment in compound induced OPC differentiation (MBP staining); assay type: cell-based, rat; conditions: compounds at EC90 (benztropine 2.3 uM), serial dilutions of carbachol, 6 days
Experimental: Following 6 days of treatment, cells were fixed and stained for MBP. Plates were imaged using the OPERA high content screening system and MBP staining was quantified as described. […] OPCs were plated in 384-well plates at 5000 cells per well in media containing basal PDGF-αα. Cells were equilibrated with Ca^2+ sensitive Fluo-3AM® dye in HBSS for 30 min. […] Ca^2+ influx was immediately measured using the FLIPR TETRA® system.
(§1) OPCs express mAChRs, predominantly subtypes M1, M3, and M5 (F. Ragheb et al., J Neurochem, 77, 1396 (2001)). […] Activation of M1 and M3 mAChRs is coupled to downstream signal transduction events through phospholipase C, which results in increased intracellular calcium concentrations (F. Ragheb et al., J Neurochem, 77, 1396 (2001)) (FIG. 23C). M2 and M4 mAChR activation inhibits adenylatecyclase, leading to decreased intracellular cAMP levels (C. C. Felder, FASEB J, 9, 619 (1995); M. Lopez-Ilasaca et al., Science, 275, 394 (1997)). […] Acetylcholine is a known regulator of OPC proliferation and, as such, muscarinic receptor subtypes represent a reasonable class of therapeutic targets for the modulation of OPC proliferation and differentiation (F. De Angelis et al., Dev Neurobiol, (2011)).

[3] = system: caspase 3; assay: Western blot of caspase 3 and cleaved caspase 3 in differentiated OPCs; conditions: benztropine 1.5 uM, thyroid hormone 1 uM, 6 days
From the text: FIG. 32. Western blot analysis of cleaved caspase activity in differentiated OPCs. […] Total protein was isolated and analyzed by Western blot using a specific antibody for the expression of caspase 3 and cleaved caspase 3.

[4] = system: dopamine D2 and D3 receptor; assay type: cell-based, rat
From the text: Error bars indicate standard deviations of 3 replicate measurements.
as §1

[5] = system: OPCs; assay: Gene expression profile of treated OPCs (Affymetrix rat genome arrays); assay type: cell-based; conditions: 6 days
Experimental: FIG. 15. Gene expression profile of OPCs differentiated to oligodendrocytes by benztropine treatment. […] OPCs from the same passage were also pelleted and frozen. Total RNA was isolated from the cells and gene expression analysis was performed using rat genome arrays from Affymetrix. […] Data are represented as fold change over DMSO treated controls.
(A) Increased expression (fold change) of mature oligodendrocyte genes in compound treated cells as compared to DMSO treated cells. (B) Decreased expression (fold change) of OPC genes in compound treated cells as compared to DMSO treated cells.
Benztropine-induced in vitro differentiation of rodent OPCS was confirmed by evaluating the transcription and translation levels of the oligodendrocyte specific markers MBP and myelin oligodendroglial glycoprotein (MOG) by RT-PCR and Western blot analysis, respectively (FIGS. 7B and 13). Additionally, in vitro OPC differentiation activity was assessed by immunofluorescent analysis using multiple markers specifically expressed in mature oligodendrocytes (including MBP, MOG, 2′,3′-cyclic-nucleotide 3′-phosphodiesterase (CNP), […] (GalC), oligodendrocyte marker O1 (O1) and oligodendrocyte marker O4 (O4)) following six days of compound treatment (FIG. 14).

[6] = system: C57BL/6 mice fed cuprizone; conditions: for remyelination / myelin staining in the corpus callosum versus vehicle, week 2: 2 weeks after cuprizone withdrawal
From the text: Data is represented in terms of threshold bins on the grey scale (0-50) as described. Error bars represent standard deviations of at least 6 corpus callosum regions.
(B) Images were converted to a 256 shade grey scale. (C) The 256 shades of grey were divided into 5 bins of 50 shades each. Number of objects in the corpus callosum region in each bin were counted using Image-Pro plus.
By administering drugs at the time when a cuprizone-free diet is reintroduced, the efficacy of promyelinating agents can be examined by evaluating the relative kinetics of OPC dependent remyelination (T. Skripuletz et al., Am J Pathol, 172, 1053 (2008)). […] Drug or vehicle treated mice were sacrificed in groups of 5 weekly for 5 weeks, following drug treatment, and remyelination was quantitatively evaluated by staining the corpus callosum regions of harvested brains with LFB (FIG. 9A, B).

[7] = system: OPCs; assay: Western blot of MBP and MOG in compound treated OPCs; assay type: cell-based, rat; conditions: OPCs treated 6 days
From the text: FIG. 2A-C. Neurotransmitter receptor modulating agents induce the differentiation of OPCs to a myelinating oligodendrocyte cell fate. (A) Western blot analysis of OPCs treated with compounds at EC90 concentrations for 6 days. Total protein was isolated from cell pellets and probed for myelin basic protein (MBP) and myelin oligodendrocyte glycoprotein (MOG) using specific antibodies. (B-C) Quantitative RT-PCR (qRT-PCR) analysis of OPCs treated with compounds at EC90 concentrations for 6 days. Total RNA was isolated from cell pellets and reverse transcribed. MBP and MOG expression was quantified using specific probes and Taqman-based qRT-PCR. Expression was normalized to the internal controls β-actin and GAPDH. Fold change in gene expression over DMSO treated control cells is plotted for MBP (B) and MOG (C).
FIG. 13. […] After 6 days in culture, cells were analyzed for MBP and MOG expression by Western blot.

[8] = system: total splenocytes stimulated with CD3; assay: T-cell activation (CD69, CD25) and proliferation (CFSE) in vitro; assay type: cell-based, mouse; conditions: versus DMSO
From the text: (A-F) Total splenocytes were isolated from mice and stimulated with CD3 and analyzed by flow cytometry for expression of T-cell activation markers CD69 and CD25 and T-cell proliferation using CFSE. (A) Unstimulated cells. (B) DMSO treated cells. […] The numbers represent percentage gated populations positive for the given marker.
The primary immunological processes involved in MS and EAE are T-cell mediated and the primary treatment paradigms are based on immunomodulatory drugs (T. Kopadze et al., Arch Neurol, 63, 1572 (2006); J. M. Greer et al., J Immunol, 180, 6402 (2007), M. P. Pender and J. M. Greer, curr Allergy Asthma Rep, 7, 285 (2007)).

[9] = system: OPCs; assay: qRT-PCR of cell cycle genes in OPCs; assay type: cell-based, rat; conditions: benztropine 1.5 uM
From the text: as §1

[10] = system: spinal cord of EAE mice; assay: Histology of spinal cord sections from EAE mice (LFB, H&E, GST-π, NG2); assay type: in vivo, mouse; conditions: for LFB (myelin) staining in areas infiltrated by lymphocytes / lymphocyte / immune cell infiltration (H&E): 10 mg/kg, relapse phase
From the text: FIG. 26. […] Spinal cords were isolated from mice representative of the average group scores during the relapse phase of EAE, sectioned and stained with Luxol Fast Blue and H&E (left panel) and Luxol Fast Blue only (right panel). Arrows point to regions of lymphocyte infiltration.

[11] = spinal cord sections of EAE mice

Compound: CN1CCN(CCCN2c3ccccc3Sc3ccc(C(F)(F)F)cc32)CC1 [trifluoperazine]
- markers of mature myelinating oligodendrocytes (MBP, MOG, CNP, GalC, O1, O4) by immunofluorescence [1]: confirmed the presence of multiple markers of mature myelinating oligodendrocytes
- effect of carbachol on compound induced OPC differentiation [2]: did not inhibit; also recorded: no effect

Compound: CN1[C@@H]2CC[C@H]1C[C@@H](OC(c1ccccc1)c1ccccc1)C2 [benztropine]
- expression of cleaved caspase 3 [3]: No expression of cleaved caspase 3 was detected
- effect of quinpirole or haloperidol on benztropine induced differentiation / dopamine D2 and D3 receptor signaling [4]: neither the dopamine receptor antagonist haloperidol, nor the dopamine receptor agonist quinpirole affected; also recorded: no effect
- expression of OPC genes and mature oligodendrocyte genes ([5]; versus DMSO): Downregulation of OPC specific genes required for proliferation; also recorded: downregulation of OPC genes and an upregulation of mature oligodendrocyte genes
- global clustering of gene expression profiles ([5]; benztropine 2.3 uM): cluster with those obtained from T3 treated positive control cells; also recorded: clustering of benztropine treated samples with thyroid hormone treated samples
- remyelination / myelin staining in the corpus callosum versus vehicle, week 2 ([6]; 10 mg/kg i.p.): significant increase in myelin staining in the corpus callosum
- remyelination / myelin staining in the corpus callosum versus vehicle, week 2 ([6]; 10 mg/kg i.p., listed as benzatropine): increased remyelination
- increase in myelin staining in the corpus callosum versus vehicle ([6]; 10 mg/kg i.p., 2 weeks after drug treatment): ~2 fold
- myelin staining versus vehicle at later time points ([6]; 10 mg/kg i.p., up to 5 weeks): significant differences were not observed
- toxicity to mature oligodendrocytes ([6]; mouse, in vivo): not toxic to mature oligodendrocytes
- markers of mature myelinating oligodendrocytes (MBP, MOG, CNP, GalC, O1, O4) by immunofluorescence [1]: confirmed the presence of multiple markers of mature myelinating oligodendrocytes; also recorded: expression of mature oligodendrocyte markers
- MBP and MOG expression (Western blot) [7]: positive
- MBP and MOG expression (Western blot) ([7]; listed as Benztropine): induces differentiation of OPCs to mature oligodendrocytes
- effect of carbachol on compound induced OPC differentiation [2]: inhibited; also recorded: Potent inhibition; also recorded: antagonizes
- effect of carbachol on compound induced OPC differentiation ([2]; listed as benzatropine): dose dependent inhibition
- T-cell activation (CD69, CD25) [8]: no effect
- T-cell proliferation (CFSE) [8]: no effect
- transcript levels of cyclin D1, cyclin D2, c-Fos, c-Jun [9]: significantly decreased; also recorded: downregulation in cell cycle genes such as Cyclin D1, Cyclin D2, c-Fos, c-Jun
- LFB (myelin) staining in areas infiltrated by lymphocytes [10]: a large number of immune cell infiltrated areas stained positive for LFB
- lymphocyte / immune cell infiltration (H&E) [10]: significant infiltration by H&E reactive immune cells
- LFB (myelin) staining in areas infiltrated by lymphocytes ([10]; listed as Benztropine): significantly increased LFB staining
- lymphocyte / immune cell infiltration (H&E) ([10]; listed as Benztropine): does not block lymphocyte infiltration
- number of GST-π positive mature oligodendrocytes ([10]; spinal cord of EAE mice, vehicle ~500): 1100 per field
- GST-π positive cells versus vehicle [10, 11]: increased GST-π positive cells
- number of NG2 positive cells versus vehicle [10, 11]: did not differ significantly; also recorded: no change
